Test results published in patent US7247617B2, “Sixteen-member macrolide antiinfective agents” (Kosan Biosciences Incorporated, priority 2004, dated 2007).

Key:
[1] = system: S. pneumoniae; test: Biological activity against bacterial strains: S. pneumoniae; format: cell-based, Streptococcus pneumoniae; set-up: Biological Activity, S. pneumoniae ATCC6301 / Biological Activity, S. pneumoniae ATCC700671 / Biological Activity, S. pneumoniae ATCC700676* / Biological Activity, S. pneumoniae ATCC700677* / Biological Activity, S. pneumoniae ATCC700905* / Biological Activity, S. pneumoniae ATCC700906* / Biological Activity, S. pneumoniae ATCC49619: unit not given here; conditions: for Biological Activity, S. pneumoniae ATCC6301: strain ATCC6301; for Biological Activity, S. pneumoniae ATCC49619: strain ATCC49619; for Biological Activity, S. pneumoniae ATCC700671: strain ATCC700671; for Biological Activity, S. pneumoniae ATCC700676*: strain ATCC700676, macrolide resistant strain; for Biological Activity, S. pneumoniae ATCC700677*: strain ATCC700677, macrolide resistant strain; for Biological Activity, S. pneumoniae ATCC700905*: strain ATCC700905, macrolide resistant strain; for Biological Activity, S. pneumoniae ATCC700906*: strain ATCC700906, macrolide resistant strain
[2] = system: S. aureus; test: Biological activity against bacterial strains: S. aureus; format: cell-based, Staphylococcus aureus; set-up: unit not given here; conditions: for Biological Activity, S. aureus ATCC6538p: strain ATCC6538p; for Biological Activity, S. aureus ATCC14154*: strain ATCC14154, macrolide resistant strain; for Biological Activity, S. aureus ATCC29213: strain ATCC29213; for Biological Activity, S. aureus ATCC33591*: strain ATCC33591, macrolide resistant strain; for Biological Activity, S. aureus ATCCBAA-39*: strain ATCCBAA-39, macrolide resistant strain; for Biological Activity, S. aureus ATCCBAA-44*: strain ATCCBAA-44, macrolide resistant strain
[3] = system: S. epidermidis; test: Biological activity against bacterial strains: S. epidermidis; format: cell-based, Staphylococcus epidermidis; conditions: strain ATCC12228
[4] = system: E. faecalis; test: Biological activity against bacterial strains: E. faecalis; format: cell-based, Enterococcus faecalis; conditions: strain ATCC51575

| Structure (SMILES) | Biological Activity, S. pneumoniae ATCC6301 [1] | Biological Activity, S. pneumoniae ATCC49619 [1] | Biological Activity, S. pneumoniae ATCC700671 [1] | Biological Activity, S. pneumoniae ATCC700676* [1] | Biological Activity, S. pneumoniae ATCC700677* [1] | Biological Activity, S. pneumoniae ATCC700905* [1] | Biological Activity, S. pneumoniae ATCC700906* [1] | Biological Activity, S. aureus ATCC6538p [2] | Biological Activity, S. aureus ATCC14154* [2] | Biological Activity, S. aureus ATCC29213 [2] | Biological Activity, S. aureus ATCC33591* [2] | Biological Activity, S. aureus ATCCBAA-39* [2] | Biological Activity, S. aureus ATCCBAA-44* [2] | Biological Activity, S. epidermidis ATCC12228 [3] | Biological Activity, E. faecalis ATCC51575 [4] |
| --- | --- | --- | --- | --- | --- | --- | --- | --- | --- | --- | --- | --- | --- | --- | --- |
| CCC1OC(=O)CC(O)C(C)C(OC2OC(C)C(O)C(N(C)C)C2O)C(CCN2CC(C)CC(C)C2)CC(C)C(=NOCCCOc2ccc3ncccc3c2)C=CC(C)=CC1COC1OC(C)C(O)C(OC)C1OC (single isomer, unassigned) [Compound L] | 0.01 | 0.025 | 0.01 | 0.049 | 0.025 | 0.098 | >12.5 | 0.20 | 0.20 | 0.20 | >12.5 | >12.5 | >12.5 | 0.20 | >12.5 |
| CCC1OC(=O)CC(O)C(C)C(OC2OC(C)C(O)C(N(C)C)C2O)C(CCN2CC(C)CC(C)C2)CC(C)C(=NOCC(=O)N2CCN(c3ccccc3)CC2)C=CC(C)=CC1CO (stereo not drawn) [Compound X] | 0.049 | 0.049 | 0.098 | 1.56 | >12.5 | 0.78 | >12.5 | 0.39 | 3.12 | 1.56 | >12.5 | >12.5 | >12.5 | 0.78 | >12.5 |
| CCC1OC(=O)CC(O)C(C)C(OC2OC(C)C(O)C(N(C)C)C2O)C(CCN2CC(C)CC(C)C2)CC(C)C(=NOCCOc2ccccc2)C=CC(C)=CC1COC1OC(C)C(O)C(OC)C1OC (stereo not drawn) [Compound O] | 0.39 | 0.78 | 0.39 | 1.56 | 6.25 | 0.78 | 12.5 | 0.20 | 0.78 | 0.39 | >12.5 | >12.5 | >12.5 | 0.39 | >12.5 |
| CCC1OC(=O)CC(O)C(C)C(OC2OC(C)C(O)C(N(C)C)C2O)C(CCN2CC(C)CC(C)C2)CC(C)C(=NOCCOc2ccccc2)C=CC(C)=CC1CO (stereo not drawn) [Compound V] | 0.20 | 0.39 | 0.39 | 0.78 | >12.5 | 0.39 | >12.5 | 0.78 | 6.25 | 6.25 | >12.5 | >12.5 | >12.5 | 6.25 | >12.5 |
| CCC1OC(=O)CC(O)C(C)C(OC2OC(C)C(O)C(N(C)C)C2O)C(CCN2CC(C)CC(C)C2)CC(C)C(=NOCCCOc2ccc3ncccc3c2)C=CC(C)=CC1CO (stereo not drawn) [Compound S] | 6.25 | 6.25 | 6.25 | 12.5 | >12.5 | 12.5 | >12.5 | >12.5 | >12.5 | >12.5 | >12.5 | >12.5 | >12.5 | >12.5 | >12.5 |
| CCC1OC(=O)CC(O)C(C)C(OC2OC(C)C(O)C(N(C)C)C2O)C(CC=O)CC(C)C(=NOCCCCOc2ccc3ncccc3c2)C=CC(C)=CC1CO (stereo not drawn) [Compound B] | 0.025 | 0.01 | 0.025 | 0.025 | 0.39 | 0.025 | >12.5 | 0.20 | 0.78 | 0.78 | >12.5 | >12.5 | >12.5 | 0.20 | >12.5 |
| CC[C@H]1OC(=O)C[C@@H](O)[C@H](C)[C@@H](O[C@@H]2O[C@H](C)[C@@H](O[C@H]3C[C@@](C)(O)[C@@H](O)[C@H](C)O3)[C@H](N(C)C)[C@H]2O)[C@@H](CC=O)C[C@@H](C)C(=O)/C=C/C(C)=C/[C@@H]1CO[C@@H]1O[C@H](C)[C@@H](O)[C@@H](OC)[C@H]1OC [Tyl, tylosin, reference compound] | 0.098 | 0.098 | 0.20 | 0.20 | >12.5 | 0.20 | >12.5 | 0.20 | 1.56 | 1.56 | >12.5 | >12.5 | >12.5 | 0.39 | >12.5 |
| CCC1OC(=O)CC(O)C(C)C(OC2OC(C)C(O)C(N(C)C)C2O)C(CCN2CC(C)CC(C)C2)CC(C)C(=NOCc2ccc(F)cc2)C=CC(C)=CC1COC1OC(C)C(O)C(OC)C1OC (single isomer, unassigned) [Compound Q] | 0.20 | 0.39 | 0.39 | 0.78 | 6.25 | 0.78 | 12.5 | 0.20 | 0.78 | 0.78 | 12.5 | >12.5 | >12.5 | 0.78 | >12.5 |
| CCC1OC(=O)CC(O)C(C)C(OC2OC(C)C(O)C(N(C)C)C2O)C(CCN2CC(C)CC(C)C2)CC(C)C(=NOCCCCOc2ccc3ncccc3c2)C=CC(C)=CC1CO (single isomer, unassigned) [Compound T] | 1.56 | 6.25 | 3.12 | 6.25 | >12.5 | 6.25 | >12.5 | 6.25 | >12.5 | 12.5 | >12.5 | >12.5 | >12.5 | >12.5 | >12.5 |
| CCC1OC(=O)CC(O)C(C)C(OC2OC(C)C(O)C(N(C)C)C2O)C(CCN2CC(C)CC(C)C2)CC(C)C(=NOCc2ccc(F)cc2)C=CC(C)=CC1CO (stereo not drawn) [Compound W] | 0.39 | 0.39 | 0.39 | 0.39 | >12.5 | 0.39 | >12.5 | 0.78 | 3.12 | 3.12 | >12.5 | >12.5 | >12.5 | 3.12 | >12.5 |
